Results: ChEMBL document CHEMBL1201862, “PubChem BioAssay data set” (2004)
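Tested at 5 concentrations; 48 h exposure; 96-well plates; endpoints linearly interpolated, else capped at highest concentration. GI50 = concentration required for 50% inhibition of growth.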 The source made the active and inactive calls. Cut-off read from the data, not from the text of the source: active = GI50 up to about 1.1 µM and inactive = higher.

Assays:
Assay in all cases: NCI-60 cell line screen, 48 h
HOP-92 = test system: HOP-92
SF-295 = test system: SF-295
CCRF-CEM = test system: CCRF-CEM
NCI-H522 = test system: NCI-H522
HCC 2998 = test system: HCC 2998
M14 = test system: M14
SF-539 = test system: SF-539
HCT-116 = test system: HCT-116
HT-29 = test system: HT-29
IGROV-1 = test system: IGROV-1
A549 = test system: A549
OVCAR-5 = test system: OVCAR-5
HL-60 = test system: HL-60
KM12 = test system: KM12
RPMI-8226 = test system: RPMI-8226
786-0 = test system: 786-0
Hs-578T = test system: Hs-578T
MDA-N = test system: MDA-N
BT-549 = test system: BT-549

Measured: GI50

NCCCCNCCCNC(=O)c1nc(-c2csc(CCN)n2)sc1Cl
inactive: HOP-92 > 100 µM | SF-295 > 100 µM | CCRF-CEM > 100 µM | NCI-H522 > 100 µM | HCC 2998 > 100 µM | M14 > 100 µM | SF-539 > 100 µM | HCT-116 > 100 µM | HT-29 > 100 µM | IGROV-1 > 100 µM | A549 > 100 µM | OVCAR-5 > 100 µM | HL-60 > 100 µM | KM12 > 100 µM | RPMI-8226 > 100 µM

CC(=O)OC1CC[C@@]2(C)C(=CC[C@@H]3[C@@H]2CC[C@]2(C)C(OC(C)=O)[C@H](n4ccnc4)C[C@@H]32)C1 (some centres not stated)
inactive: HOP-92 97.5 µM | 786-0 30.4 µM | SF-295 31.7 µM | CCRF-CEM 11.7 µM | NCI-H522 14.4 µM | M14 17.2 µM | SF-539 15.3 µM | HCT-116 14.9 µM | HT-29 10.7 µM | Hs-578T 47 µM | MDA-N 21 µM | IGROV-1 34.4 µM | A549 35.3 µM | OVCAR-5 74.1 µM | HL-60 8.91 µM | KM12 16.7 µM | RPMI-8226 17.3 µM

[O-]/N=[N+](/[O-])C1CCCCC1=[N+]1CCOCC1 (configuration not stated)
inactive: HOP-92 > 100 µM | 786-0 > 100 µM | SF-295 > 100 µM | CCRF-CEM > 100 µM | NCI-H522 > 100 µM | M14 > 100 µM | HCT-116 > 100 µM | HT-29 > 100 µM | A549 > 100 µM | OVCAR-5 > 100 µM | HL-60 > 100 µM | KM12 > 100 µM | RPMI-8226 > 100 µM

O=C(CNC(=O)OCc1ccccc1)NCCCCC(NC(=O)OCc1ccccc1)C(=O)NC(CCCCNC(=O)CNC(=O)OCc1ccccc1)C(=O)OCc1ccccc1 (configuration not stated)
inactive: 786-0 > 62.5 µM | CCRF-CEM > 62.5 µM | NCI-H522 26.9 µM | HCC 2998 > 62.5 µM | M14 > 62.5 µM | HCT-116 > 62.5 µM | HT-29 > 62.5 µM | IGROV-1 > 62.5 µM | A549 > 62.5 µM | OVCAR-5 > 62.5 µM | HL-60 > 62.5 µM | BT-549 > 62.5 µM | RPMI-8226 > 62.5 µM

CN1c2ccccc2N(C)C23N(C)c4ccccc4N(C)C12N(C)c1ccccc1N3C (configuration not stated)
inactive: HOP-92 22.9 µM | 786-0 > 100 µM | SF-295 > 100 µM | CCRF-CEM > 100 µM | NCI-H522 > 100 µM | HCC 2998 > 100 µM | M14 > 100 µM | SF-539 > 100 µM | HCT-116 > 100 µM | HT-29 > 100 µM | IGROV-1 > 100 µM | A549 > 100 µM | OVCAR-5 > 100 µM | HL-60 > 100 µM | KM12 > 100 µM

CC(C)OP(=O)(OC(C)C)/C(=N/Nc1ccc([N+](=O)[O-])cc1)NN
inactive: HOP-92 65 µM | 786-0 > 100 µM | CCRF-CEM > 100 µM | NCI-H522 47.8 µM | HCC 2998 > 100 µM | M14 > 100 µM | SF-539 > 100 µM | HCT-116 > 100 µM | A549 75.3 µM | OVCAR-5 > 100 µM | HL-60 > 100 µM | KM12 > 100 µM | RPMI-8226 88.3 µM

O=C1OC(c2ccccc2)=N/C1=C/NC(Cc1c[nH]c2ccccc12)C(=O)O (configuration not stated)
inactive: HOP-92 > 100 µM | 786-0 > 100 µM | SF-295 > 100 µM | CCRF-CEM > 100 µM | NCI-H522 68.4 µM | HCC 2998 > 100 µM | M14 > 100 µM | SF-539 > 100 µM | HCT-116 > 100 µM | HT-29 > 100 µM | IGROV-1 > 100 µM | A549 > 100 µM | OVCAR-5 > 100 µM | HL-60 > 100 µM | RPMI-8226 > 100 µM

Cc1ccc(C2C(Cl)C(=O)N2NC(=O)c2ccc(N)cc2)cc1 (configuration not stated)
inactive: HOP-92 14.5 µM | 786-0 15.5 µM | SF-295 20.3 µM | CCRF-CEM 7.73 µM | NCI-H522 12 µM | HCC 2998 > 100 µM | M14 18.7 µM | SF-539 23.9 µM | HCT-116 15 µM | HT-29 21.2 µM | IGROV-1 8.97 µM | A549 27.7 µM | OVCAR-5 24.3 µM | HL-60 12.1 µM | KM12 25.5 µM | RPMI-8226 24.2 µM

CN1CCc2cc(O)c3cc2C1Cc1ccc(cc1)Oc1cc(ccc1O)CC1c2c(cc4c(c2O3)OCO4)CCN1C (configuration not stated)
inactive: 786-0 58.2 µM | SF-295 21.5 µM | CCRF-CEM 27.7 µM | HCC 2998 19.5 µM | M14 16.8 µM | SF-539 17.3 µM | HCT-116 36.6 µM | HT-29 21.2 µM | IGROV-1 25.6 µM | A549 45.7 µM | OVCAR-5 27 µM | HL-60 16.3 µM | KM12 29.9 µM

N#C/C(=C/C=C/c1ccco1)C(N)=O
inactive: 786-0 > 10 µM | SF-295 > 10 µM | NCI-H522 > 10 µM | HCC 2998 > 10 µM | M14 > 10 µM | SF-539 > 10 µM | HT-29 > 10 µM | Hs-578T > 10 µM | MDA-N > 10 µM | IGROV-1 > 10 µM | OVCAR-5 > 10 µM | KM12 > 10 µM

Cc1ccc(NCC2(/N=C/c3ccccc3)OC(CO)C(O)C2O)cc1 (configuration not stated)
inactive: HOP-92 64 µM | 786-0 49.5 µM | SF-295 24.3 µM | CCRF-CEM 31.6 µM | NCI-H522 37.5 µM | HCC 2998 91.2 µM | M14 40.9 µM | SF-539 41.7 µM | HCT-116 36.6 µM | HT-29 35.8 µM | IGROV-1 > 100 µM | A549 44 µM | OVCAR-5 > 100 µM | HL-60 20.5 µM | KM12 67.9 µM | RPMI-8226 35 µM

CCN(CC)CCOC(NC(C)=O)(c1ccccc1)c1ccccc1
inactive: HOP-92 > 100 µM | 786-0 > 100 µM | SF-295 > 100 µM | CCRF-CEM > 100 µM | HCC 2998 > 100 µM | M14 > 100 µM | SF-539 > 100 µM | HCT-116 > 100 µM | HT-29 > 100 µM | Hs-578T > 100 µM | IGROV-1 > 100 µM | A549 > 100 µM | OVCAR-5 > 100 µM | HL-60 > 100 µM | KM12 > 100 µM | RPMI-8226 > 100 µM

COC(=O)c1c2c(cc3c1CC1(C3)Cc3cc4c(c(C(=O)OC)c3C1)CCC4)CCC2
inactive: HOP-92 > 100 µM | 786-0 > 100 µM | SF-295 > 100 µM | CCRF-CEM 98.9 µM | NCI-H522 > 100 µM | HCC 2998 > 100 µM | M14 > 100 µM | SF-539 > 100 µM | HCT-116 > 100 µM | HT-29 > 100 µM | Hs-578T 65.9 µM | MDA-N > 100 µM | IGROV-1 > 100 µM | A549 > 100 µM | OVCAR-5 > 100 µM | HL-60 22.1 µM | KM12 > 100 µM | RPMI-8226 > 100 µM

O=C(CSCC(=O)N/N=C/c1ccncc1)N/N=C/c1ccncc1
inactive: HOP-92 > 100 µM | 786-0 > 100 µM | SF-295 > 100 µM | CCRF-CEM > 100 µM | NCI-H522 > 100 µM | HCC 2998 > 100 µM | M14 > 100 µM | SF-539 > 100 µM | HCT-116 > 100 µM | HT-29 > 100 µM | Hs-578T > 100 µM | IGROV-1 > 100 µM | A549 > 100 µM | OVCAR-5 > 100 µM | HL-60 > 100 µM | BT-549 > 100 µM | KM12 > 100 µM | RPMI-8226 > 100 µM

CC(=O)OC[C@@]12Cc3ccc(C)c(O)c3[C@]1(C)[C@@H](OC(C)=O)[C@]1(O)[C@H]([C@@H](OC(=O)c3ccccc3)[C@@H](C)[C@H]1OC(C)=O)[C@H]2OC(C)=O
inactive: HOP-92 > 50 µM | 786-0 > 50 µM | SF-295 > 50 µM | CCRF-CEM > 50 µM | NCI-H522 > 50 µM | HCC 2998 22 µM | M14 > 50 µM | SF-539 > 50 µM | HCT-116 > 50 µM | Hs-578T > 50 µM | IGROV-1 > 50 µM | OVCAR-5 > 50 µM | HL-60 44.9 µM | BT-549 > 50 µM | KM12 > 50 µM

COc1ccc(/C=C2\Sc3nnc(CNc4ccc(Cl)cc4)n3N=C2c2cc(F)c(Cl)cc2Cl)cc1OC
inactive: HOP-92 17 µM | 786-0 24.5 µM | SF-295 > 100 µM | CCRF-CEM 4.97 µM | NCI-H522 27.7 µM | HCC 2998 31 µM | M14 59.8 µM | SF-539 > 100 µM | HCT-116 14.8 µM | HT-29 28.6 µM | Hs-578T 51.2 µM | MDA-N 24 µM | IGROV-1 > 100 µM | OVCAR-5 88.9 µM | HL-60 45.7 µM | KM12 83.8 µM | RPMI-8226 7.57 µM

O=C(c1cc2ccccc2[nH]1)C(O)(c1cc2ccccc2[nH]1)c1cc2ccccc2[nH]1
inactive: HOP-92 > 246 µM | 786-0 > 246 µM | SF-295 154 µM | CCRF-CEM > 246 µM | NCI-H522 > 246 µM | HCC 2998 > 246 µM | SF-539 129 µM | HCT-116 16.6 µM | HT-29 > 246 µM | IGROV-1 > 246 µM | A549 > 246 µM | OVCAR-5 > 246 µM | HL-60 > 246 µM | KM12 > 246 µM | RPMI-8226 > 246 µM
